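Assay format: 96-well plates, 48-hour exposure. Definition used: TGI = concentration required for complete inhibition of growth.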 Some results are limits rather than exact numbers.

Experiment in all cases: NCI tumour cell line growth inhibition, 48 h
In experiment [1] the test system is SNB-19 CNS.
In experiment [2] the test system is SNB-75 CNS.
Experiment [3] has as its system NCI-H460 lung.
The test system of experiment [4] is OVCAR-5 ovarian.
Experiment [5] deals with COLO 205 colon.
For experiment [6], the system named is SN12C renal.
In experiment [7] the test system is NCI-H226 lung.
For experiment [8], the system named is RXF 393 renal.
In experiment [9] the test system is SR leukemia.
Experiment [10] concerns U251 CNS.
Experiment [11] has as its system MDA-MB-231 breast.
Experiment [12] concerns DU-145 prostate.
Experiment [13] has as its system UACC-62 melanoma.
Experiment [14] deals with ACHN renal.
Experiment [15] has as its system NCI/ADR-RES ovarian.
In experiment [16] the test system is K-562 leukemia.
In experiment [17] the test system is HOP-92 NSCLC.
Experiment [18] relates to UO-31 renal.
Experiment [19] has as its system TK-10 renal.

Turning to `C=C1C2CC3CCC2C(OC(=O)c2ccccc2C(=O)O)C13` (stereo not drawn), the TGI in experiment [1], in experiment [2], in experiment [3], in experiment [4], in experiment [5] and in [6] was over 100 µM throughout. For the same molecule, the TGI in [7], in [8], in [9], in experiment [10], in experiment [11] and in experiment [12] was over 100 µM in each case. Also, the TGI in experiment [13], in experiment [14], in [15], in experiment [16], in experiment [17] and in [18] was over 100 µM in each case. In addition, the TGI in experiment [19] was over 100 µM.

With `CC(=O)c1c2c(cc3c1CC1(Cc4cc5c(cc4C1)C(=O)CCC5)C3)CCCC2` (stereo not drawn), the TGI in experiment [1] was 80.9 µM; in experiment [2] it was over 26.1 µM; in [3] it was 67.2 µM; in experiment [4], over 100 µM; in [5], 21.7 µM; in [6], over 100 µM. For the same molecule, the TGI was 41.8 µM in experiment [7]; over 25.7 µM in experiment [8]; 5.53 µM in experiment [9]; over 100 µM in experiment [10]; 55.1 µM in [11]; over 100 µM in [12]. Further, the TGI is over 39.2 µM in [13]; 17.2 µM in [14]; over 100 µM in experiment [15]; 4.79 µM in experiment [16]; 40.1 µM in experiment [17]; over 90.6 µM in [18]. Moreover, in [19], the TGI was over 100 µM.

For the molecule `Cc1ccc2c(c1)C=CC1(O2)N(c2ccccc2)C(=S)OC1(C)C` (stereo not drawn), the TGI in experiment [1], in [2], in experiment [3], in experiment [4], in [5] and in experiment [6] was over 100 µM each time. Besides, the TGI is over 100 µM in experiment [7]; over 100 µM in experiment [8]; 78.9 µM in experiment [9]; over 100 µM in experiment [10]; over 100 µM in experiment [11]; over 100 µM in experiment [12]. For the same molecule, the TGI in [13], in experiment [14], in experiment [15], in experiment [16], in [17] and in experiment [18] was over 100 µM throughout. This molecule also returned a TGI in experiment [19] of over 100 µM.

Turning to `O=C1C(c2c(O)[nH]c3ccc(Cl)cc23)=Nc2ccccc21`, the TGI is over 81.4 µM in [1]; 15.5 µM in experiment [2]; over 100 µM in [3]; over 28.1 µM in [4]; over 100 µM in [5]; over 100 µM in experiment [6]. Further, the TGI was 37 µM in experiment [7]; 7.11 µM in experiment [8]; over 100 µM in [9]; 17.6 µM in experiment [10]; 6.9 µM in experiment [11]; over 25.9 µM in experiment [12]. For the same molecule, the TGI was over 91.3 µM in experiment [13]; 20.3 µM in experiment [14]; over 100 µM in experiment [15]; over 100 µM in experiment [16]; 29.5 µM in [17]; 2.25 µM in experiment [18]. The molecule also displayed a TGI in experiment [19] of 18.8 µM.

`COc1ccc(C[C@@H](C(=O)O[C@H](C)[C@H](NC(=O)[C@@H](CC(C)C)N(C)C(=O)C2CCCN2C(=O)[C@H](C)O)C(=O)N2CCCCNC(=O)[C@@H](C)C(=O)[C@H](C(C)C)OC(=O)C[C@H](O)[C@H]2CC(C)C)N(C)C(C)=O)cc1` (stereo partly drawn): the TGI in [1] is over 50 µM; in experiment [2], over 50 µM; in experiment [3], 45.2 µM; in [4], over 50 µM; in [5], 14.8 µM; in [6] it was over 50 µM. The TGI in [7] is 49.5 µM; in experiment [8], 20.6 µM; in experiment [9], 25 µM; in experiment [10], 21.8 µM; in experiment [11] it was 34.2 µM; in experiment [12], over 50 µM. The TGI in experiment [13] was 22 µM; in experiment [14], over 50 µM; in [15], over 50 µM; in experiment [16], 39.7 µM; in experiment [17] it was over 50 µM; in experiment [18] it was over 50 µM. The TGI in experiment [19] was over 50 µM.

`Cc1nc2c(O)c3c(c(O)c2nc1C)C1C=CC3CC1`: the TGI in [1] is over 100 µM; in experiment [2], over 92.6 µM; in experiment [3] it was over 72.6 µM; in [4], 34.9 µM; in experiment [5] it was 38.4 µM; in experiment [6], 27.4 µM. The TGI was 56.2 µM in experiment [7]; 22.6 µM in experiment [8]; over 90.8 µM in experiment [9]; 21.6 µM in experiment [10]; 10.1 µM in [11]; over 100 µM in [12]. Also, the TGI in experiment [13] is 67.2 µM; in experiment [14], 28.5 µM; in experiment [15], 18.5 µM; in experiment [16], 4.31 µM; in [17], 7.75 µM; in experiment [18] it was 24.8 µM. In experiment [19], this molecule showed a TGI of 40.8 µM.

In the case of `COc1ccc2nc3n(c2c1)C(c1c(F)cccc1F)SC3` (stereo not drawn), the TGI was 93.3 µM in experiment [1]; over 100 µM in experiment [2]; over 100 µM in experiment [3]; over 100 µM in experiment [4]; over 100 µM in experiment [5]; over 100 µM in experiment [6]. In addition, the TGI was 66.2 µM in experiment [7]; over 100 µM in experiment [8]; over 100 µM in experiment [9]; over 100 µM in experiment [10]; over 100 µM in [11]; over 100 µM in experiment [12]. Besides, the TGI in experiment [13] was over 100 µM; in [14] it was over 100 µM; in experiment [15], 59.2 µM; in experiment [16] it was over 100 µM; in experiment [17], over 100 µM; in experiment [18], over 100 µM. This molecule also gave a TGI in [19] of over 100 µM.

The values are drawn from PubChem BioAssay (NCI).
